Organism: Rattus norvegicus
Assay: Open TG-GATES - Regimen: Daily Repeat
Assay type: toxicity, organism-based, Sprague-Dawley
Set-up: regimen Daily Repeat, gender Male, age 6 weeks
Conditions: in vivo, po, route gavage; for APTT / Bas / Eos / Fbg / Hb / Ht / Lym / MCH / MCHC / MCV / Mono / Neu / PT / Plat / RBC / Ret / WBC: tissue Blood; for KIDNEY_L / KIDNEY_R / KIDNEY_TOTAL: tissue Kidney; for LIVER: tissue Liver; for A/G / ALP / ALT / AST / BUN / CRE / Ca / Cl / DBIL / GLC / IP / K / LDH / Na / PL / RALB / TBIL / TC / TG / TP / gamma-GTP: tissue Plasma
[1] = 0 mg/kg, 72 h, dose level Control, time 3 day
[2] = 0 mg/kg, […], dose level Control, time 7 day
[3] = 0 mg/kg, […], dose level Control, time 14 day
[4] = 0 mg/kg, […], dose level Control, time 28 day
[5] = 10 mg/kg, 72 h, dose level Low, time 3 day
[6] = 10 mg/kg, […], dose level Low, time 7 day
[7] = 10 mg/kg, […], dose level Low, time 14 day
[8] = 10 mg/kg, […], dose level Low, time 28 day

## CC1=C(/C=C/C(C)=C/C=C/C(C)=C/CO)C(C)(C)CCC1 [RETINOL]
[1]
  TERMINAL_BW: 232.6 g
  APTT: 21.2 s
  Bas: 0%
  Eos: 0.8%
  Fbg: 302.6 mg/dL
  Hb: 13.6 g/dL
  Ht: 39.5%
  Lym: 81.8%
  MCH: 21.4 pg
  MCHC: 34.4%
  MCV: 62 fL
  Mono: 2.8%
  Neu: 14%
  PT: 16.6 s
  Plat: 116.8 x10_4/uL
  RBC: 637 x10_4/ul
  Ret: 6.6%
  WBC: 108.7 x10_2/uL
  KIDNEY_L: 1.1 g
  KIDNEY_R: 1.1 g
  KIDNEY_TOTAL: 2.1 g
  LIVER: 11 g
  A/G: 1.2
  ALP: 1642.8 IU/L
  ALT: 49.4 IU/L
  AST: 76.2 IU/L
  BUN: 18.6 mg/dL
  CRE: 0.1 mg/dL
  Ca: 10.9 mg/dL
  Cl: 106.8 meq/L
  DBIL: 0 mg/dL
  GLC: 199.8 mg/dL
  IP: 6.8 mg/dL
  K: 4.6 meq/L
  LDH: 251.8 IU/L
  Na: 141.2 meq/L
  PL: 145.4 mg/dL
  RALB: 3 g/dL
  TBIL: 0.012 mg/dL
  TC: 76.2 mg/dL
  TG: 94.8 mg/dL
  TP: 5.5 g/dL
  gamma-GTP: 1 IU/L
[2]
  TERMINAL_BW: 257.6 g
  APTT: 20.5 s
  Bas: 0%
  Eos: 0.8%
  Fbg: 304.8 mg/dL
  Hb: 13.6 g/dL
  Ht: 38.8%
  Lym: 79.6%
  MCH: 20.9 pg
  MCHC: 35.1%
  MCV: 59.7 fL
  Mono: 2.2%
  Neu: 16.4%
  PT: 16.3 s
  Plat: 117.2 x10_4/uL
  RBC: 650.4 x10_4/ul
  Ret: 5.1%
  WBC: 114.1 x10_2/uL
  KIDNEY_L: 1.1 g
  KIDNEY_R: 1.1 g
  KIDNEY_TOTAL: 2.2 g
  LIVER: 12.5 g
  A/G: 1.3
  ALP: 1920 IU/L
  ALT: 39.6 IU/L
  AST: 67.6 IU/L
  BUN: 17.4 mg/dL
  CRE: 0.2 mg/dL
  Ca: 10.7 mg/dL
  Cl: 106.4 meq/L
  DBIL: 0 mg/dL
  GLC: 189 mg/dL
  IP: 6.2 mg/dL
  K: 4.4 meq/L
  LDH: 219.6 IU/L
  Na: 142 meq/L
  PL: 145.2 mg/dL
  RALB: 3.2 g/dL
  TBIL: 0.002 mg/dL
  TC: 74 mg/dL
  TG: 109.6 mg/dL
  TP: 5.6 g/dL
  gamma-GTP: 1.2 IU/L
[3]
  TERMINAL_BW: 301.9 g
  APTT: 21.4 s
  Bas: 0%
  Eos: 0.4%
  Fbg: 312 mg/dL
  Hb: 13.7 g/dL
  Ht: 38.7%
  Lym: 78%
  MCH: 20.9 pg
  MCHC: 35.4%
  MCV: 59.2 fL
  Mono: 2%
  Neu: 18.2%
  PT: 16.1 s
  Plat: 122.4 x10_4/uL
  RBC: 654 x10_4/ul
  Ret: 5.2%
  WBC: 121.8 x10_2/uL
  KIDNEY_L: 1.2 g
  KIDNEY_R: 1.2 g
  KIDNEY_TOTAL: 2.4 g
  LIVER: 13.8 g
  A/G: 1.3
  ALP: 1383 IU/L
  ALT: 34.6 IU/L
  AST: 64.6 IU/L
  BUN: 17.4 mg/dL
  CRE: 0.2 mg/dL
  Ca: 10.8 mg/dL
  Cl: 106 meq/L
  DBIL: 0 mg/dL
  GLC: 201.8 mg/dL
  IP: 6.1 mg/dL
  K: 4.2 meq/L
  LDH: 226.8 IU/L
  Na: 142 meq/L
  PL: 152 mg/dL
  RALB: 3.2 g/dL
  TBIL: 0.004 mg/dL
  TC: 74.8 mg/dL
  TG: 103 mg/dL
  TP: 5.9 g/dL
  gamma-GTP: 1.2 IU/L
[4]
  TERMINAL_BW: 374.5 g
  APTT: 24.2 s
  Bas: 0%
  Eos: 1%
  Fbg: 354.8 mg/dL
  Hb: 15.1 g/dL
  Ht: 42.6%
  Lym: 83.8%
  MCH: 19.5 pg
  MCHC: 35.5%
  MCV: 54.8 fL
  Mono: 1.6%
  Neu: 12.6%
  PT: 15.8 s
  Plat: 113.8 x10_4/uL
  RBC: 778.2 x10_4/ul
  Ret: 2.6%
  WBC: 112.5 x10_2/uL
  KIDNEY_L: 1.4 g
  KIDNEY_R: 1.4 g
  KIDNEY_TOTAL: 2.7 g
  LIVER: 15.6 g
  A/G: 1.2
  ALP: 1062.8 IU/L
  ALT: 43.4 IU/L
  AST: 65.4 IU/L
  BUN: 16.8 mg/dL
  CRE: 0.2 mg/dL
  Ca: 10.6 mg/dL
  Cl: 106 meq/L
  DBIL: 0 mg/dL
  GLC: 194 mg/dL
  IP: 6.3 mg/dL
  K: 4 meq/L
  LDH: 145.6 IU/L
  Na: 141.2 meq/L
  PL: 147 mg/dL
  RALB: 3.3 g/dL
  TBIL: 0.026 mg/dL
  TC: 78 mg/dL
  TG: 100.8 mg/dL
  TP: 6.1 g/dL
  gamma-GTP: 1.2 IU/L
[5]
  TERMINAL_BW: 230.9 g
  APTT: 22.3 s
  Bas: 0%
  Eos: 0.8%
  Fbg: 311.2 mg/dL
  Hb: 13.4 g/dL
  Ht: 38.9%
  Lym: 80.8%
  MCH: 21 pg
  MCHC: 34.4%
  MCV: 61.2 fL
  Mono: 2.6%
  Neu: 15.4%
  PT: 16.8 s
  Plat: 123.7 x10_4/uL
  RBC: 636 x10_4/ul
  Ret: 6.2%
  WBC: 97.2 x10_2/uL
  KIDNEY_L: 1 g
  KIDNEY_R: 1 g
  KIDNEY_TOTAL: 2 g
  LIVER: 10.7 g
  A/G: 1.3
  ALP: 2143.6 IU/L
  ALT: 51.6 IU/L
  AST: 82 IU/L
  BUN: 17 mg/dL
  CRE: 0.1 mg/dL
  Ca: 11 mg/dL
  Cl: 107.8 meq/L
  DBIL: 0 mg/dL
  GLC: 191.4 mg/dL
  IP: 6.5 mg/dL
  K: 4.3 meq/L
  LDH: 262.6 IU/L
  Na: 142.2 meq/L
  PL: 153.6 mg/dL
  RALB: 3.2 g/dL
  TBIL: 0.016 mg/dL
  TC: 78.2 mg/dL
  TG: 112.6 mg/dL
  TP: 5.6 g/dL
  gamma-GTP: 1 IU/L
[6]
  TERMINAL_BW: 257.9 g
  APTT: 23.3 s
  Bas: 0%
  Eos: 0.8%
  Fbg: 298.4 mg/dL
  Hb: 13.6 g/dL
  Ht: 39.2%
  Lym: 79.4%
  MCH: 21.2 pg
  MCHC: 34.8%
  MCV: 60.9 fL
  Mono: 2.4%
  Neu: 16.8%
  PT: 15.9 s
  Plat: 111.8 x10_4/uL
  RBC: 644 x10_4/ul
  Ret: 5.1%
  WBC: 94.2 x10_2/uL
  KIDNEY_L: 1.1 g
  KIDNEY_R: 1.1 g
  KIDNEY_TOTAL: 2.2 g
  LIVER: 12.5 g
  A/G: 1.3
  ALP: 1621.4 IU/L
  ALT: 41.6 IU/L
  AST: 68.2 IU/L
  BUN: 17.2 mg/dL
  CRE: 0.2 mg/dL
  Ca: 10.7 mg/dL
  Cl: 107.2 meq/L
  DBIL: 0 mg/dL
  GLC: 193.2 mg/dL
  IP: 6.2 mg/dL
  K: 4.1 meq/L
  LDH: 216 IU/L
  Na: 142.4 meq/L
  PL: 157.4 mg/dL
  RALB: 3.2 g/dL
  TBIL: 0.006 mg/dL
  TC: 76.4 mg/dL
  TG: 160.4 mg/dL
  TP: 5.7 g/dL
  gamma-GTP: 1.4 IU/L
[7]
  TERMINAL_BW: 293.8 g
  APTT: 23.8 s
  Bas: 0%
  Eos: 0.8%
  Fbg: 295.4 mg/dL
  Hb: 14.4 g/dL
  Ht: 40.6%
  Lym: 83.6%
  MCH: 20.6 pg
  MCHC: 35.4%
  MCV: 58.2 fL
  Mono: 1.8%
  Neu: 13.2%
  PT: 16.2 s
  Plat: 107.1 x10_4/uL
  RBC: 698 x10_4/ul
  Ret: 3.9%
  WBC: 114.6 x10_2/uL
  KIDNEY_L: 1.1 g
  KIDNEY_R: 1.2 g
  KIDNEY_TOTAL: 2.3 g
  LIVER: 12.9 g
  A/G: 1.2
  ALP: 1426.6 IU/L
  ALT: 42.8 IU/L
  AST: 70.6 IU/L
  BUN: 17.6 mg/dL
  CRE: 0.2 mg/dL
  Ca: 10.6 mg/dL
  Cl: 108.4 meq/L
  DBIL: 0 mg/dL
  GLC: 195 mg/dL
  IP: 5.7 mg/dL
  K: 4 meq/L
  LDH: 181.2 IU/L
  Na: 143.2 meq/L
  PL: 150 mg/dL
  RALB: 3.1 g/dL
  TBIL: 0.004 mg/dL
  TC: 70.2 mg/dL
  TG: 156.8 mg/dL
  TP: 5.7 g/dL
  gamma-GTP: 0.8 IU/L
[8]
  TERMINAL_BW: 358.5 g
  APTT: 26.8 s
  Bas: 0%
  Eos: 1%
  Fbg: 330 mg/dL
  Hb: 14.9 g/dL
  Ht: 41.2%
  Lym: 82.8%
  MCH: 19.8 pg
  MCHC: 36.2%
  MCV: 54.6 fL
  Mono: 1.6%
  Neu: 14.6%
  PT: 15.8 s
  Plat: 102.3 x10_4/uL
  RBC: 756 x10_4/ul
  Ret: 2.4%
  WBC: 86 x10_2/uL
  KIDNEY_L: 1.3 g
  KIDNEY_R: 1.3 g
  KIDNEY_TOTAL: 2.6 g
  LIVER: 14.9 g
  A/G: 1.2
  ALP: 1127 IU/L
  ALT: 46.2 IU/L
  AST: 69.4 IU/L
  BUN: 15.2 mg/dL
  CRE: 0.2 mg/dL
  Ca: 10.4 mg/dL
  Cl: 108.4 meq/L
  DBIL: 0 mg/dL
  GLC: 182.8 mg/dL
  IP: 5.8 mg/dL
  K: 4.1 meq/L
  LDH: 167.2 IU/L
  Na: 142 meq/L
  PL: 140.2 mg/dL
  RALB: 3.2 g/dL
  TBIL: 0.016 mg/dL
  TC: 67.8 mg/dL
  TG: 168.2 mg/dL
  TP: 6 g/dL
  gamma-GTP: 1.4 IU/L
